Key:
Format in all cases: cell-based, dogs
anaerobes = assay: Canine plate biofilm assay (PBA): bacterial viable counts, anaerobes; settings: extracts at 500 μg/ml, counted after 9 days, vs controls
Procedure: (§1) The assay requires fresh supragingival canine dental plaque and saliva for inoculation. The inoculum consists of pooled dental plaque and unfiltered saliva sampled from a group of 14 dogs, varying in age, breed and oral health status.
(§2) The plaque and saliva were resuspended in artificial saliva to form the inoculum of approximately 15% plaque and 30% saliva.
(§3) The plate biofilm assay (PBA) utilises a 24 well plate format in which biofilms, representative of canine dental plaque, are grown on hydroxyapatite (HA) discs. Prior to being introduced to the 24 well assay plate, each HA disc is preconditioned for 2 hours in a solution of 50% filter sterilised canine saliva in artificial canine saliva. […] Each HA disc, with the exception of those being used for biomass quantification, is placed into 500 μl PBS and vortex mixed for 30 seconds to remove biofilm growth from the disc into solution. […] Biofilm-covered HA discs that are being used for biomass quantification are removed from the 24 well assay plate and used directly in the crystal violet assay.
(§4) Viable numbers of bacteria were quantified using Columbia blood agar plates supplemented with haemin and menadione. Aerobes were counted after incubation for 2 days and anaerobes, including black pigmenting colonies (BPC), were counted after incubation at appropriate conditions for 9 days. […]

Aerobes = assay: Canine plate biofilm assay (PBA): bacterial viable counts, aerobes; settings: extracts at 500 μg/ml, counted after 2 days, vs controls
Procedure: as §1, §2, §3, §4

[1] = tested on: Trypsin-like protease activity; assay: Canine plate biofilm assay (PBA): protease activity (liquid BAPNA assay); settings: 48 hours, extracts at 500 μg/ml, vs controls
Procedure: as §1, §2
as §3, with “saliva. The preconditioning step stimulates the formation of a salivary pellicle on the HA disc surface.” for “saliva.”
Trypsin-like protease activity was measured using the liquid BAPNA assay, a colourimetric assay in which the amount of trypsin present in a sample is directly proportional to the intensity of the colour developed. […]

[2] = tested on: biofilms representative of canine dental plaque; assay: Canine plate biofilm assay (PBA): biomass quantification (crystal violet assay); settings: 48 hours, extracts at 500 μg/ml, OD595 vs no active controls
Procedure: as §1, §2
as §3, with “saliva. The preconditioning step stimulates the formation of a salivary pellicle on the HA disc surface.” for “saliva.”
The total amount of biofilm grown on the HA discs was quantified using the crystal violet staining method. Biomass was represented as being directly proportional to the OD reading at 595 nm (OD595) of the samples compared to controls. […]

[3] = tested on: black pigmenting colonies (BPC); assay: Canine plate biofilm assay (PBA): bacterial viable counts, black pigmenting colonies; settings: extracts at 500 μg/ml, counted after 9 days, vs controls
Procedure: as §1, §2, §3, §4

[H]/N=C(\N/C(=N/[H])NCCCCCCNC(=N)NC(=N)Nc1ccc(Cl)cc1)Nc1ccc(Cl)cc1 [Chlorhexidine, chlorhexidine]
Anaerobe (Log 10 reduction) (anaerobes): 2.48 Log 10 reduction
Aerobe (log 10 reduction) (Aerobes): 2.87 log 10 reduction
Protease (% reduction) [1]: 95.76%
Biomass (% reduction) [2]: 94.40%
BPC (Log 10 reduction) [3]: 2.74 Log 10 reduction

Source: patent US8206690B2, “Oral health composition” (Mars Incorporated, priority 2006, dated 2012)
